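Each compound was tested at five concentrations against cells in 96-well plates for 48 hours. Abbreviation: GI50, concentration required for 50% inhibition of growth.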 Calls of active or inactive are those of the source. Rule as the data show it: active = GI50 up to about 1.1 µM and inactive = higher.
Legend:
Assay in all cases: DTP human tumour cell line panel, 48 h
A498 = system: A498
HL-60 = system: HL-60
IGROV-1 = system: IGROV-1
K562 = system: K562
LOX IMVI = system: LOX IMVI
M14 = system: M14
MDA-MB-231 = system: MDA-MB-231
MOLT-4 = system: MOLT-4
Malme-3M = system: Malme-3M
NCI-H226 = system: NCI-H226
NCI-H23 = system: NCI-H23
NCI/ADR-RES = system: NCI/ADR-RES
RXF 393 = system: RXF 393
SK-MEL-28 = system: SK-MEL-28
SNB-19 = system: SNB-19
SNB-75 = system: SNB-75
SR = system: SR
UACC-257 = system: UACC-257
UACC-62 = system: UACC-62
UO-31 = system: UO-31

| Compound | GI50 (A498) | GI50 (HL-60) | GI50 (IGROV-1) | GI50 (K562) | GI50 (LOX IMVI) | GI50 (M14) | GI50 (MDA-MB-231) | GI50 (MOLT-4) | GI50 (Malme-3M) | GI50 (NCI-H226) | GI50 (NCI-H23) | GI50 (NCI/ADR-RES) | GI50 (RXF 393) | GI50 (SK-MEL-28) | GI50 (SNB-19) | GI50 (SNB-75) | GI50 (SR) | GI50 (UACC-257) | GI50 (UACC-62) | GI50 (UO-31) |
| --- | --- | --- | --- | --- | --- | --- | --- | --- | --- | --- | --- | --- | --- | --- | --- | --- | --- | --- | --- | --- |
| COC1CC(C)(N)C(O)C(C)O1 (stereo not drawn) | > 100 µM (inactive) | > 100 µM (inactive) | > 100 µM (inactive) | > 100 µM (inactive) | > 100 µM (inactive) | > 100 µM (inactive) | > 100 µM (inactive) | > 100 µM (inactive) | > 100 µM (inactive) | > 100 µM (inactive) | > 100 µM (inactive) | > 100 µM (inactive) | > 100 µM (inactive) | > 100 µM (inactive) | > 100 µM (inactive) | > 100 µM (inactive) | > 100 µM (inactive) | > 100 µM (inactive) | > 100 µM (inactive) | > 100 µM (inactive) |
| O=C1c2ccccc2C(=O)c2c1oc1cc(O)c(Cl)cc21 | 19.7 µM (inactive) | 6.92 µM (inactive) | 10.1 µM (inactive) | 13.5 µM (inactive) | 1.61 µM (inactive) | 3.1 µM (inactive) | 12.8 µM (inactive) | 12.3 µM (inactive) | 1.07 µM (active) | 14 µM (inactive) | 0.519 µM (active) | 12.7 µM (inactive) | 9.46 µM (inactive) | 3.05 µM (inactive) | 8.81 µM (inactive) | 2.88 µM (inactive) | 11.8 µM (inactive) | 2.33 µM (inactive) | 1.93 µM (inactive) | 11.9 µM (inactive) |
| Cc1ccc([N+](=O)[O-])cc1S(=O)(=O)Nc1ccc(C2=NOC(c3ccccc3)C2)cc1 (stereo not drawn) | 4.03 µM (inactive) | 5.12 µM (inactive) | 5.48 µM (inactive) | 1.96 µM (inactive) | 10.9 µM (inactive) | 4.11 µM (inactive) | 8.99 µM (inactive) | 2.61 µM (inactive) | 8.63 µM (inactive) | 24.9 µM (inactive) | 14.5 µM (inactive) | 3.04 µM (inactive) | 1.82 µM (inactive) | 18.7 µM (inactive) | 10.1 µM (inactive) | 8.18 µM (inactive) | 1.31 µM (inactive) | 14.7 µM (inactive) | 3.85 µM (inactive) | 18.2 µM (inactive) |
| ClCC[N+]12CC[N+](CCCl)(CC1)C2 | > 100 µM (inactive) | > 100 µM (inactive) | > 100 µM (inactive) | > 100 µM (inactive) | > 100 µM (inactive) | > 100 µM (inactive) | > 100 µM (inactive) | > 100 µM (inactive) | > 100 µM (inactive) | > 100 µM (inactive) | > 100 µM (inactive) | > 100 µM (inactive) | > 100 µM (inactive) | > 100 µM (inactive) | > 100 µM (inactive) | > 100 µM (inactive) | 55 µM (inactive) | > 100 µM (inactive) | > 100 µM (inactive) | > 100 µM (inactive) |
| Cn1/c(=N\N=C2\C=C3CCCCC3(C)CC2)sc2ccccc21 (stereo not drawn) | > 100 µM (inactive) | > 100 µM (inactive) | > 100 µM (inactive) | > 100 µM (inactive) | > 100 µM (inactive) | > 100 µM (inactive) | 71.8 µM (inactive) | – | > 100 µM (inactive) | > 100 µM (inactive) | > 100 µM (inactive) | > 100 µM (inactive) | > 100 µM (inactive) | > 100 µM (inactive) | > 100 µM (inactive) | 47.1 µM (inactive) | > 100 µM (inactive) | > 100 µM (inactive) | > 100 µM (inactive) | > 100 µM (inactive) |
| CN1CCC/C1=N\C#N | > 100 µM (inactive) | > 100 µM (inactive) | > 100 µM (inactive) | > 100 µM (inactive) | > 100 µM (inactive) | > 100 µM (inactive) | > 100 µM (inactive) | > 100 µM (inactive) | > 100 µM (inactive) | > 100 µM (inactive) | > 100 µM (inactive) | > 100 µM (inactive) | > 100 µM (inactive) | > 100 µM (inactive) | > 100 µM (inactive) | > 100 µM (inactive) | > 100 µM (inactive) | – | > 100 µM (inactive) | > 100 µM (inactive) |
